In ChEMBL document CHEMBL1201862, “PubChem BioAssay data set” (2004):
“And” between values parts separate entries of the source, which are not always exact repeats. Equal values may be shown once. The source made the active and inactive calls.

Assays:
Vero [1] = assay: cells; assay type: functional; conditions: Chlorocebus sabaeus
Vero [2] = assay: cells; assay type: functional, cell-based; conditions: Chlorocebus sabaeus
[3] = target: T1, DNA repair and recombination protein RAD54-like (Homo sapiens, UniProt Q92698); assay: inhibitors of human RAD54 branch migration, confirmation, biochemical, fluorescence, cherry-picked samples, dose series (AID 651657); assay type: functional
T1 sequence (Q92698 whole entry): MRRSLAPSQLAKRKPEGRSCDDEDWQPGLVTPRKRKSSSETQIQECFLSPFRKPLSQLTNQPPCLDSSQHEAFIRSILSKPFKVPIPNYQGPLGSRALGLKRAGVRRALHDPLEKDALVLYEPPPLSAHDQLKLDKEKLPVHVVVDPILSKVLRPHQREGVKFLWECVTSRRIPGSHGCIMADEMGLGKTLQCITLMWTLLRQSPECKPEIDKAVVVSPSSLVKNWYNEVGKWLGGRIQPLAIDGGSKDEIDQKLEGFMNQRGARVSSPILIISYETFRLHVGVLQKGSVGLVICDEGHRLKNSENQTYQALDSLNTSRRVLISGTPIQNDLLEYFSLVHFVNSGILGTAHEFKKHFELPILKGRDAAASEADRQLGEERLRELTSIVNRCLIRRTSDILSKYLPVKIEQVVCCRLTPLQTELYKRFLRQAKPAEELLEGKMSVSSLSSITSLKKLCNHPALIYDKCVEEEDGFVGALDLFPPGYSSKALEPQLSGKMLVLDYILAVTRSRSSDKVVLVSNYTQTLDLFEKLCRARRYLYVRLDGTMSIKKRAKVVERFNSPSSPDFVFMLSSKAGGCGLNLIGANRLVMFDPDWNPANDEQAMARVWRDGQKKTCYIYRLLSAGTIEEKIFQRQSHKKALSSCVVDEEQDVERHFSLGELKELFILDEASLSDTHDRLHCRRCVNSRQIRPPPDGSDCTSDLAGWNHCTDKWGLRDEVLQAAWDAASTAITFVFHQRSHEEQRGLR

[4] = Luminescence-based counterscreen assay for KLF5 inhibitors: dose response cell-based high throughput screening assay to identify cytotoxic compounds using the IEC-6 intestinal epithelial cell line. [Related pubchem assays: 1700 (Primary screen.), 1834 (Confirmation screen.), 1858 (Summary AID.), 1905 (Counterscreen.)]; assay type: functional
[5] = cytotoxicity in MIN6 insulinoma cells, dose response, cytotoxicity control, cell-based, mouse insulinoma (AID 2122); assay type: functional;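 note: confirmatory high-throughput counterscreen run to flag cytotoxic compounds; mouse MIN-6 beta cells carrying an insulin promoter eGFP reporter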
[6] = inhibitors of intracellular T. cruzi replication, confirmation, NIH3T3 host cells, beta-gal luminescence (AID 2044); assay type: functional, cell-based;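 note: intracellular parasites grown in NIH/3T3 mouse fibroblasts as host cells; luminescent beta-galactosidase reporter signal from transgenic T. cruzi replicating inside host cells; inhibitors lower the luminescence signal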
[7] = NIH-3T3 fibroblast cytotoxicity, dose response, cytotoxicity control, cell-based, fluorescence, Alamar Blue, secondary assay (AID 2327); assay type: functional;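 note: NIH-3T3 mouse fibroblasts cultured with fluconazole at 8 µg/mL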
[8] = MDA-MB-231 cell growth inhibition, dose response, cytotoxicity control for RAD54 inhibitor project, CellTiter-Glo luminescence, cherry-pick (AID 651692); assay type: functional, cell-based
[9] = C. albicans growth with fluconazole, confirmation, fluorescence, retest (AID 2467); assay type: functional, cell-based
Nonstructural protein 1 = Nonstructural protein 1 (Influenza A virus, UniProt Q194T2); assay type: functional, Influenza A virus (A/California/07/2009(H1N1))
[10] = growth suppression of PTEN-null colon cells, dose response, cell-based, HCT116 PTEN knockout (AID 1047); assay type: functional;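 note: HCT116 colon tumor cells with PTEN knocked out; cells exposed to compound for 60 hours before readout; potency for loss of cell viability measured by luminescence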
[11] = target: T2, Mannose-6-phosphate isomerase (Homo sapiens, UniProt P34949); assay: inhibitors of human PMI, primary screen, biochemical, fluorescence intensity, coupled assay (AID 1209)
T2 sequence (P34949 whole entry): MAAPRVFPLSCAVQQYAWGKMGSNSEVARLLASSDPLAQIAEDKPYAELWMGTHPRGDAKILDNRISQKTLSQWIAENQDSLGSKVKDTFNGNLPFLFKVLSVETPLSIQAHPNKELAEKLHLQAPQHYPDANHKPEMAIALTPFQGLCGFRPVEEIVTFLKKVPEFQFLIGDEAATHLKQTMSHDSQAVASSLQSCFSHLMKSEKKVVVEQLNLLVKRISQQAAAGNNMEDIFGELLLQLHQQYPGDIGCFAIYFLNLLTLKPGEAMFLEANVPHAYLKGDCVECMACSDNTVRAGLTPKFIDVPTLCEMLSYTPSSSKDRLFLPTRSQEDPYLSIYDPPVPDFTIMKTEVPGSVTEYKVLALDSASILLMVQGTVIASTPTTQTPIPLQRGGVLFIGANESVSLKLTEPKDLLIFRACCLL

[12] = insulin promoter down-regulators in MIN6 cells, imaging, high-content screening, mouse beta cells (AID 1628); assay type: functional
[13] = growth suppression of beta-catenin-knockout colon cells, dose response, cell-based, HCT116, human colon tumor (AID 1045); assay type: functional;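 note: HCT116 colon tumor cells with beta catenin knocked out; cells exposed to compound for 60 hours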
[14] = cytotoxicity toward NIH3T3 fibroblasts, dose response, counter-screen, cell-based, ATP luminescence, mouse fibroblasts (AID 2010); assay type: functional;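 note: cells exposed to compound for about 90 hours before reading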
INS1 = assay: beta cell apoptosis inhibitors, cytokine rescue, dose response, luminescence, retest (AID 449756); assay type: functional, cell-based; conditions: Rattus norvegicus;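 note: cell death triggered by IL-1 beta plus TNF-alpha plus IFN-gamma mixture; protective hits raise ATP signal compared with cytokine alone wells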
[15] = target: T3, Voltage-gated N-type calcium channel alpha-1B subunit/Amyloid beta A4 precursor protein-binding family A member 1 (Homo sapiens, UniProt Q00975+Q02410); assay: disruptors of Mint-PDZ/N-type channel peptide interaction – biochemical, HTRF, SAR follow-up (AID 2489); assay type: functional
SUMO E1/E2 = SUMO E1/E2 (Homo sapiens, UniProt P63279+Q9UBE0+Q9UBT2); assay: SAR analysis of SUMOylation using HTRF in an in-Vitro dose response assay. [Related pubchem assays (depositor defined):AID2006, AID2011, AID2018, AID2069, AID2658]; assay type: functional
[16] = target: T3, Voltage-gated N-type calcium channel alpha-1B subunit/Amyloid beta A4 precursor protein-binding family A member 1; assay: disruptors of Mint-PDZ/N-type channel peptide interaction – biochemical, HTRF, set 2, SAR follow-up (AID 434980); assay type: functional

T3 sequence (Q00975 whole entry): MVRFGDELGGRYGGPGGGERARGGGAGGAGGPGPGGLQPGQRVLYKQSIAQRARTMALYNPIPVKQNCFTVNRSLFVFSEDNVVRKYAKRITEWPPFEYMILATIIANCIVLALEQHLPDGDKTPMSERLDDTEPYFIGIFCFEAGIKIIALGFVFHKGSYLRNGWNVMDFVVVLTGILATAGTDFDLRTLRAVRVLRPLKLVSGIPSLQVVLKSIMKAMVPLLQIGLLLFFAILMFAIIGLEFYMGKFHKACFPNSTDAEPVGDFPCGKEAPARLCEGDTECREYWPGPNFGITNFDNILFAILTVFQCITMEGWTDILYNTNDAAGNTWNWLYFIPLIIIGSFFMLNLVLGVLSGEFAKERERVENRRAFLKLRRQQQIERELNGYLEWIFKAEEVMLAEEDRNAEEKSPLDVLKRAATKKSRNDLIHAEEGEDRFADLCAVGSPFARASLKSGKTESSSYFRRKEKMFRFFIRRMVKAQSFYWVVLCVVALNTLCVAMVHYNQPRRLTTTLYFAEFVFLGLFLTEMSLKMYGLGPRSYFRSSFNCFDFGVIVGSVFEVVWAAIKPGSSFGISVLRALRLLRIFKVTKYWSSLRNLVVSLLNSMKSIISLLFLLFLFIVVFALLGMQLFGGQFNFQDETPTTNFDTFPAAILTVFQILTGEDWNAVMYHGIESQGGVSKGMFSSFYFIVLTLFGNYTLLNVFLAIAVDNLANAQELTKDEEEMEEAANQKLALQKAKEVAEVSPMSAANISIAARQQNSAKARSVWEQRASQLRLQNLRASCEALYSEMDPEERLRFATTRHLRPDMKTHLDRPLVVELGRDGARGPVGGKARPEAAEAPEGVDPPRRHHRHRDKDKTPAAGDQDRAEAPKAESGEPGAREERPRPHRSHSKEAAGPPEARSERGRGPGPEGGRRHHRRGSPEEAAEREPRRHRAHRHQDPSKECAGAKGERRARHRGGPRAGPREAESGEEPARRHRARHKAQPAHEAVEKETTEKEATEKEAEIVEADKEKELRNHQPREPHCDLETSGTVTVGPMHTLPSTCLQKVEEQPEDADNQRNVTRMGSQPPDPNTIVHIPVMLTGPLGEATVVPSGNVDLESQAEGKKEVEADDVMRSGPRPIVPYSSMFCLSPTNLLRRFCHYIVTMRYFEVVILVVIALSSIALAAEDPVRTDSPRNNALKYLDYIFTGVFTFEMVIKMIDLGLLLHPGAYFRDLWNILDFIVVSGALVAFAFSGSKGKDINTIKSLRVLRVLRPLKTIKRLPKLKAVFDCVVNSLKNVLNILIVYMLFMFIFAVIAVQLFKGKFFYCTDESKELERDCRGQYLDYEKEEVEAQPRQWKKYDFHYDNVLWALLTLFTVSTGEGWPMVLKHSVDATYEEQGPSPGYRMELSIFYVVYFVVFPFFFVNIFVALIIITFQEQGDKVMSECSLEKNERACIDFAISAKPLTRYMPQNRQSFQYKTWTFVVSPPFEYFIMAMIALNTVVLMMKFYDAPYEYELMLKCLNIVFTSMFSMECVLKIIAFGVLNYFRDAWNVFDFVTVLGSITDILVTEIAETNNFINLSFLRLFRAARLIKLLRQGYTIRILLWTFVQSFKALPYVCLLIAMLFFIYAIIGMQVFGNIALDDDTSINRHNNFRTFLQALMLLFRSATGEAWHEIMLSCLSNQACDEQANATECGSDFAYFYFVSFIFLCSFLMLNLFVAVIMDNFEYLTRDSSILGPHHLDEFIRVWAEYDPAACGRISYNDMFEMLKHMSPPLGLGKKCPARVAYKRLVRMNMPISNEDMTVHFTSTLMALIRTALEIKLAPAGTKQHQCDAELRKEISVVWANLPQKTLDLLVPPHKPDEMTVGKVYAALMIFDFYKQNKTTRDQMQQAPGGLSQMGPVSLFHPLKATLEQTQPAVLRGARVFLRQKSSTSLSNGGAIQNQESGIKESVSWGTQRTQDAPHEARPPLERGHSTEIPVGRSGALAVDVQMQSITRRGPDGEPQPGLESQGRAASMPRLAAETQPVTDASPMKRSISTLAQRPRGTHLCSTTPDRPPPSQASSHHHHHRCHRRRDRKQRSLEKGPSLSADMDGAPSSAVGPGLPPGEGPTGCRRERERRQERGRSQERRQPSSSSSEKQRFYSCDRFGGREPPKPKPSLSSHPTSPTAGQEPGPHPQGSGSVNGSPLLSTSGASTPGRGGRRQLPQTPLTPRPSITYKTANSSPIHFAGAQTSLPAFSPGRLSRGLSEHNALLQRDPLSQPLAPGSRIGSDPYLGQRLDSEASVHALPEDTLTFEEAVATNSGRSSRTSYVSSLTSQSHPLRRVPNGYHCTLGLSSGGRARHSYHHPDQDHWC
T3 sequence (Q02410 whole entry): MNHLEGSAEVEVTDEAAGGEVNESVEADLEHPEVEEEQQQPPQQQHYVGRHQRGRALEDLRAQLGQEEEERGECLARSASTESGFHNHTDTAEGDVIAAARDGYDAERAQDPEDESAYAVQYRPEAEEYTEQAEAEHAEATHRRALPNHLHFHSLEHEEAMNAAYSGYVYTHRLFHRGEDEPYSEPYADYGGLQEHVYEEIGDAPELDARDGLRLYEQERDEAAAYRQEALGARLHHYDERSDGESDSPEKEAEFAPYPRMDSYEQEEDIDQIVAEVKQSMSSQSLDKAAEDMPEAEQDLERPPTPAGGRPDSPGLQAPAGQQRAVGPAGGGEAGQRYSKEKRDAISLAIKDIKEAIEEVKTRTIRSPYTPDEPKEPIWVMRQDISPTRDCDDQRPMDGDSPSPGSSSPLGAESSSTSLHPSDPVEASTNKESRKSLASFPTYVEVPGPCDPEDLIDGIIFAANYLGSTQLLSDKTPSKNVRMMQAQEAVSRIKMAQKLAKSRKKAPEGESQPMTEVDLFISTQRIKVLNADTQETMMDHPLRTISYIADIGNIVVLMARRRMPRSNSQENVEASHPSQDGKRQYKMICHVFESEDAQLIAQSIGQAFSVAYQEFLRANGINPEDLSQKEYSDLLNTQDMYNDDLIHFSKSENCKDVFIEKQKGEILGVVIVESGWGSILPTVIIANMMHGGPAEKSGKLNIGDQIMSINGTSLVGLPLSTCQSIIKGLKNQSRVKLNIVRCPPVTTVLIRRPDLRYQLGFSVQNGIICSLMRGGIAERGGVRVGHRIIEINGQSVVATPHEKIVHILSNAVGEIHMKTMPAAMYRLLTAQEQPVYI
Chain of SUMO E1/E2 (Q9UBE0 whole entry): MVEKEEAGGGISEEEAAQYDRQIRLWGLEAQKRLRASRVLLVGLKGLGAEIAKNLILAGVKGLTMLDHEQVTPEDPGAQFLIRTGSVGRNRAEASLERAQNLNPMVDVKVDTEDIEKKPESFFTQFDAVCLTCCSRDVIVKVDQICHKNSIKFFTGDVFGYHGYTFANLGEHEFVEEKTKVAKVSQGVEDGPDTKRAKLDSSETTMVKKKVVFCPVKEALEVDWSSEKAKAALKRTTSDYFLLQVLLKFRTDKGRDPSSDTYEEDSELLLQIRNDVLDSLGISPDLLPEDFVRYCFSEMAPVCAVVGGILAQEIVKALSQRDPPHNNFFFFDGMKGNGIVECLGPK
Chain of SUMO E1/E2 (Q9UBT2 whole entry): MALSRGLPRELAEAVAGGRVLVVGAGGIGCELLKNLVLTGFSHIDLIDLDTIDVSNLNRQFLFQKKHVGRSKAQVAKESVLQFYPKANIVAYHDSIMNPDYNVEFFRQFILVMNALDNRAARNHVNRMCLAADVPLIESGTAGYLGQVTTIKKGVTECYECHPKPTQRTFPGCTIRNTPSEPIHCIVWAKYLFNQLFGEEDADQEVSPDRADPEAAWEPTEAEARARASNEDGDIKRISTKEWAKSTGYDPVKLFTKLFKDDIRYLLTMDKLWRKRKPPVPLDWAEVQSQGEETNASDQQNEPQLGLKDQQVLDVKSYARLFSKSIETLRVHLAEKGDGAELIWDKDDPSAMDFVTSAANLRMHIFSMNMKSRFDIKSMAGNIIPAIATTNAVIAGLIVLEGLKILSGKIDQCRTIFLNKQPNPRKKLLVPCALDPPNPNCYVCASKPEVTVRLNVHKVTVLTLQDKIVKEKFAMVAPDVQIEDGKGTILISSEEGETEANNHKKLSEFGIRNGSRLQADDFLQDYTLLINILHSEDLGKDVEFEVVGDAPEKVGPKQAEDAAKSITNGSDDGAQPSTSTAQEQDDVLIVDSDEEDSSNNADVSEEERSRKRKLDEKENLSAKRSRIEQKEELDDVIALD
Chain of SUMO E1/E2 (P63279 whole entry): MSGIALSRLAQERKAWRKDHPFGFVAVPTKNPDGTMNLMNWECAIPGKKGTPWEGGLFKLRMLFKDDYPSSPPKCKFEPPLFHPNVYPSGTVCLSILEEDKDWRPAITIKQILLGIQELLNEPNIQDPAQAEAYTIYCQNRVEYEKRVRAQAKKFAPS
Chain of Nonstructural protein 1 (Q194T2 whole entry): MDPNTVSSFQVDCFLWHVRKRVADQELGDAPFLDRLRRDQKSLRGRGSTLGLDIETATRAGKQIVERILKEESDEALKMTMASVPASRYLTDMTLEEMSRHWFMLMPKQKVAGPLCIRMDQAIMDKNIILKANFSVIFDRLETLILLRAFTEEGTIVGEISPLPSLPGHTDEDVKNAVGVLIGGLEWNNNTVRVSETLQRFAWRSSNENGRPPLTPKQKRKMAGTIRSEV

Question: What does the source list for `COc1ccc(S(=O)(=O)N2CCOC23CCN(C(=O)c2ccc(Cl)cc2Cl)CC3)cc1`?
Answer: CC50 (Vero [1]): > 25 µM (active); IC50 (Vero [2]): > 25 µM (active)

Question: For `Oc1cccc2ccc(Nc3ccccn3)nc12`, which AC50 [3] is on record?
Answer: 15.5 µM (active)

Question: What about the IC50 [4] of the same compound?
Answer: 6.8 µM (active)

Question: And the IC50 [5]?
Answer: 2.35 µM (active)

Question: What about the EC50 [6] of the same compound?
Answer: 1.12 µM (active)

Question: What about the EC50 [7] of the same compound?
Answer: 4.93 µM (inconclusive)

Question: What about the AC50 [8] of the same compound?
Answer: 15.1 µM (active)

Question: And the EC50 [9]?
Answer: 1.55 µM (active)

Question: And the IC50 (Nonstructural protein 1)?
Answer: 2.35 µM (active)

Question: What about the EC50 [10] of the same compound?
Answer: 1.23 µM (active)

Question: And the IC50 [11]?
Answer: > 50 µM (not active)

Question: What about the IC50 [12] of the same compound?
Answer: 3.03 µM (active)

Question: And the EC50 [13]?
Answer: 0.713 µM (active)

Question: What about the EC50 [14] of the same compound?
Answer: 6 µM (active)

Question: And the AC50 (INS1)?
Answer: 1.18 µM (active)

Question: With `O=C(COC(=O)c1cc(-c2ccco2)nc2ccccc12)NCc1ccc(Cl)cc1` as the compound, how does the IC50 [15] read?
Answer: 10.4 µM (active) and > 56.8 µM (inactive)

Question: And the IC50 (SUMO E1/E2)?
Answer: 2.84 µM (active) and 4.46 µM (active)

Question: What about the IC50 [16] of the same compound?
Answer: 7.73 µM (active) and 9.82 µM (active)
